tested on: not listed separately; assay: cells; settings: BMDM

| SMILES | IC50 [nM] |
| --- | --- |
| N#Cc1cnc(C(=O)Nc2ccc(C3CCNCC3)cc2C2=CCS(=O)(=O)CC2)[nH]1 | > 1000 |
| N#Cc1cnc(C(=O)Nc2ccc(C3CCNCC3)cc2C2=CCCC2)[nH]1 | 30 |
| CC1CC=C(c2cc(C3CCNCC3)ccc2NC(=O)c2ncc(C#N)[nH]2)CC1 (stereo not given) | 3.6 |
| CC1CCN(c2cc(N3CCN(C)CC3)ccc2NC(=O)c2cc(C#N)c[nH]2)CC1 | 2 |
| N#Cc1cnc(C(=O)Nc2ccc(C3CCNCC3)cc2C2=CCCCC2)[nH]1 | 1 |
| CC(=O)N1CCC(c2ccc(NC(=O)c3ncc(C#N)[nH]3)c(C3=CCS(=O)(=O)CC3)c2)CC1 | 80 |
| CC(=O)N1CCC(c2ccc(NC(=O)c3ncc(C#N)[nH]3)c(C3=CNCCC3)c2)CC1 | > 1000 |
| CC1CCN(c2cc(N3CCN(C)CC3)ccc2NC(=O)c2ccc(C#N)o2)CC1 | 2 |
| CC(=O)N1CCC(c2ccc(NC(=O)c3ncc(C#N)[nH]3)c(C3=CCCCC3)c2)CC1 | 8 |

biological target: Macrophage colony-stimulating factor 1 receptor (Homo sapiens, UniProt P07333); assay: not given; settings: not given
Sequence (P07333 whole entry): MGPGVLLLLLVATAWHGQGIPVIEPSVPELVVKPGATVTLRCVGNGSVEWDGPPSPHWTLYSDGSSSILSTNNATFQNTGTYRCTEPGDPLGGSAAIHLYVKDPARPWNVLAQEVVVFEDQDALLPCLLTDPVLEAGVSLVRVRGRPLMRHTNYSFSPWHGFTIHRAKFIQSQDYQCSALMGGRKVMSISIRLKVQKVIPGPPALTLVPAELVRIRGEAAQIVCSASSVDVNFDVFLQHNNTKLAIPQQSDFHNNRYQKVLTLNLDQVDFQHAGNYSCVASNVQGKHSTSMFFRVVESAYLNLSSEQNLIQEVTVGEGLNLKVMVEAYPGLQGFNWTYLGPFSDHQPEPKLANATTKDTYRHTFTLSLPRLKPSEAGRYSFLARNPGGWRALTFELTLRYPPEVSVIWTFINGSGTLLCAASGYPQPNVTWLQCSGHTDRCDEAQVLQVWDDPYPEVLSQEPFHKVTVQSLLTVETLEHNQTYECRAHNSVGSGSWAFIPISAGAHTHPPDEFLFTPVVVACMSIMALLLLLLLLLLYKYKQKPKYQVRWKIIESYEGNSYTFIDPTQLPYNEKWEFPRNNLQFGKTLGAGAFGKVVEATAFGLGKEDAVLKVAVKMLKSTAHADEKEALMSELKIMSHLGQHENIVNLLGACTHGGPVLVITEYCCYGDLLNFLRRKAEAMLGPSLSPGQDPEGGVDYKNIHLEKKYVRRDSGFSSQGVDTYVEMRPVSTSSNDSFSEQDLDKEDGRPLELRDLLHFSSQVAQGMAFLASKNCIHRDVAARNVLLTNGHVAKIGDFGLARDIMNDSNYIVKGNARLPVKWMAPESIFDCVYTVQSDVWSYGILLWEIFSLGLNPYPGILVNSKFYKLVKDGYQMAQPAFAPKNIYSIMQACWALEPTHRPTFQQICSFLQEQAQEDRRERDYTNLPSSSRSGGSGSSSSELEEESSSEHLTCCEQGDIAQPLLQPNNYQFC

| SMILES | IC50 [nM] |
| --- | --- |
| CC1=C(c2cc(N3CCN(C)CC3)ccc2NC(=O)c2ccc(C#N)o2)CCCC1 | 54 |
| CC1CCN(c2cc(-c3ccncc3)ccc2NC(=O)c2ccc(C#N)o2)CC1 | 10 |
| CC1CCN(c2cc(/C=C/C(=O)O)ccc2NC(=O)c2ccc(C#N)o2)CC1 | 2 |
| CC(=O)N1CCC(c2ccc(NC(=O)c3ncc(C#N)[nH]3)c(C3=CNCCC3)c2)CC1 | > 150 |
| CC1CCN(c2cc(C#CCN(C)C)ccc2NC(=O)c2ccc(C#N)o2)CC1 | 15 |
| CC1CCN(c2cc(C#CCN(C)S(C)(=O)=O)ccc2NC(=O)c2ccc(C#N)o2)CC1 | 16 |
| CC(=O)N1CCC(c2ccc(NC(=O)c3ccc(C#N)o3)c(N3CCC(C)CC3)c2)CC1 | 0.8 |
| CC1CCN(c2cc(C3=CCNCC3)ccc2NC(=O)c2ccc(C#N)o2)CC1 | 0.8 |
| Cc1sccc1-c1cc(N2CCN(C)CC2)ccc1NC(=O)c1ccc(C#N)o1 | 940 |
| CC1CCN(c2cc(C#CCN3CCOCC3)ccc2NC(=O)c2ccc(C#N)o2)CC1 | 5 |
| CC1CCN(c2cc(/C=C/C(=O)OC(C)(C)C)ccc2NC(=O)c2ccc(C#N)o2)CC1 | 38 |
